Source: ChEMBL document CHEMBL1149774, “Synthesis of N-(5,7-diamino-3-phenyl-quinoxalin-2-yl)-3,4,5-substituted anilines and N-[4[(5,7-diamino-3-phenylquinoxalin-2-yl)amino]benzoyl]-l-glutamic acid diethyl ester: evaluation of in vitro anti-cancer and anti-folate activities” (Eur J Med Chem, 2008)
The source made the active and inactive calls. The calls are words filed in the database; no cut-off is given here.

Key:
[1] = test system: RXF 393; assay: Growth inhibition of human RXF393 cells after 48 hrs by SRB staining method; format: functional; settings: RXF 393, 48 h; for TGI: read-out: pTGI (converted)
[2] = test system: ACHN; assay: Growth inhibition of human ACHN cells after 48 hrs by SRB staining method; format: functional; settings: for CC50: read-out: pLC50 (the source's name) (converted); for TGI: read-out: pTGI (converted)
[3] = test system: DU-145; assay: Growth inhibition of human DU145 cells after 48 hrs by SRB staining method; format: functional; settings: DU-145, 48 h; for CC50: read-out: pLC50 (the source's name) (converted); for TGI: read-out: pTGI (converted)
[4] = Growth inhibition of human HS 578T cells after 48 hrs by SRB staining method; format: functional; settings: for CC50: read-out: pLC50 (the source's name) (converted); for TGI: read-out: pTGI (converted)
[5] = test system: UACC-257; assay: Growth inhibition of human UACC257 cells after 48 hrs by SRB staining method; format: functional; settings: UACC-257, 48 h; for TGI: read-out: pTGI (converted)
[6] = test system: NCI/ADR-RES; assay: Growth inhibition of human NCI/ADR-RES cells after 48 hrs by SRB staining method; format: functional; settings: for CC50: read-out: pLC50 (the source's name) (converted); for TGI: read-out: pTGI (converted)
[7] = test system: COLO 205; assay: Growth inhibition of human COLO205 cells after 48 hrs by SRB staining method; format: functional; settings: COLO 205, 48 h; for TGI: read-out: pTGI (converted)
[8] = test system: HL-60; assay: Growth inhibition of human HL60 cells after 48 hrs by SRB staining method; format: functional; settings: HL-60, 48 h; for CC50: read-out: pLC50 (the source's name) (converted); for TGI: read-out: pTGI (converted)
[9] = test system: K562; assay: Growth inhibition of human K562 cells after 48 hrs by SRB staining method; format: functional; settings: K562, 48 h
[10] = target: T1, Dihydrofolate reductase (Homo sapiens) (UniProt P00374); assay: Inhibition of human dihydrofolate reductase at 10 uM
T1 sequence (whole entry): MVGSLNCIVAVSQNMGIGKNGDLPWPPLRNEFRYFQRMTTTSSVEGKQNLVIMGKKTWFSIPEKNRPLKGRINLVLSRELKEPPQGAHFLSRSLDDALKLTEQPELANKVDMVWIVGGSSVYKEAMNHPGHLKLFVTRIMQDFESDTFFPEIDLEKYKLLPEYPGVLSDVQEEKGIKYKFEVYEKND

[11] = test system: SNB-19; assay: Growth inhibition of human SNB19 cells after 48 hrs by SRB staining method; format: functional; settings: SNB-19, 48 h; for TGI: read-out: pTGI (converted)
[12] = test system: CAKI-1; assay: Growth inhibition of human CAKI1 cells after 48 hrs by SRB staining method; format: functional; settings: CAKI-1, 48 h; for CC50: read-out: pLC50 (the source's name) (converted); for TGI: read-out: pTGI (converted)
[13] = test system: SF-539; assay: Growth inhibition of human SF539 cells after 48 hrs by SRB staining method; format: functional; settings: SF-539, 48 h; for TGI: read-out: pTGI (converted)
[14] = test system: TK-10; assay: Growth inhibition of human TK10 cells after 48 hrs by SRB staining method; format: functional; settings: TK-10, 48 h; for CC50: read-out: pLC50 (the source's name) (converted); for TGI: read-out: pTGI (converted)
[15] = test system: IGROV-1; assay: Growth inhibition of human IGROV1 cells after 48 hrs by SRB staining method; format: functional; settings: IGROV-1, 48 h; for TGI: read-out: pTGI (converted)
[16] = test system: UACC-62; assay: Growth inhibition of human UACC62 cells after 48 hrs by SRB staining method; format: functional; settings: UACC-62, 48 h; for TGI: read-out: pTGI (converted)
[17] = test system: MDA-MB-435; assay: Growth inhibition of human MDA-MB-435 cells after 48 hrs by SRB staining method; format: functional; settings: MDA-MB-435, 48 h; for CC50: read-out: pLC50 (the source's name) (converted); for TGI: read-out: pTGI (converted)
[18] = test system: M14; assay: Growth inhibition of human M14 cells after 48 hrs by SRB staining method; format: functional; settings: M14, 48 h; for TGI: read-out: pTGI (converted)
[19] = target: T2, Thymidylate synthase (Lactobacillus casei, UniProt P00469)
T2 sequence (P00469 whole entry): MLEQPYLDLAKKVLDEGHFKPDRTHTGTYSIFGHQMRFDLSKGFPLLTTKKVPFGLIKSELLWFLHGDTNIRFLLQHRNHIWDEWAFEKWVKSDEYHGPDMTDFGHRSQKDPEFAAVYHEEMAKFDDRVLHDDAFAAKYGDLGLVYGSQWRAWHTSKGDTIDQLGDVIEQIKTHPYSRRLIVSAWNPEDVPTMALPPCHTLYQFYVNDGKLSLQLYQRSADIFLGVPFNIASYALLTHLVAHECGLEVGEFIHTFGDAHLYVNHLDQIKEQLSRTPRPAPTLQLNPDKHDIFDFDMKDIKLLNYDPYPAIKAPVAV
Description: Inhibition of Lactobacillus casei thymidylate synthase

[20] = test system: HT-29; assay: Growth inhibition of human HT29 cells after 48 hrs by SRB staining method; format: functional; settings: HT-29, 48 h
[21] = test system: SNB-75; assay: Growth inhibition of human SNB75 cells after 48 hrs by SRB staining method; format: functional; settings: SNB-75, 48 h
[22] = test system: NCI-H226; assay: Growth inhibition of human NCI-H226 cells after 48 hrs by SRB staining method; format: functional; settings: NCI-H226, 48 h; for TGI: read-out: pTGI (converted)
[23] = test system: SF-268; assay: Growth inhibition of human SF268 cells after 48 hrs by SRB staining method; format: functional; settings: SF-268, 48 h; for CC50: read-out: pLC50 (the source's name) (converted); for TGI: read-out: pTGI (converted)
[24] = test system: MOLT-4; assay: Growth inhibition of human MOLT4 cells after 48 hrs by SRB staining method; format: functional; settings: MOLT-4, 48 h; for CC50: read-out: pLC50 (the source's name) (converted); for TGI: read-out: pTGI (converted)
[25] = test system: CCRF-CEM; assay: Growth inhibition of human CCRF-CEM cells after 48 hrs by SRB staining method; format: functional
[26] = target: Thymidylate synthase (Homo sapiens, UniProt P04818)
Description: Inhibition of human thymidylate synthase

[27] = test system: T47D; assay: Growth inhibition of human T47D cells after 48 hrs by SRB staining method; format: functional
[28] = read-out: pLC50 (the source's name) (converted)

Thymidylate synthase (Homo sapiens, UniProt P04818), sequence (P04818 whole entry): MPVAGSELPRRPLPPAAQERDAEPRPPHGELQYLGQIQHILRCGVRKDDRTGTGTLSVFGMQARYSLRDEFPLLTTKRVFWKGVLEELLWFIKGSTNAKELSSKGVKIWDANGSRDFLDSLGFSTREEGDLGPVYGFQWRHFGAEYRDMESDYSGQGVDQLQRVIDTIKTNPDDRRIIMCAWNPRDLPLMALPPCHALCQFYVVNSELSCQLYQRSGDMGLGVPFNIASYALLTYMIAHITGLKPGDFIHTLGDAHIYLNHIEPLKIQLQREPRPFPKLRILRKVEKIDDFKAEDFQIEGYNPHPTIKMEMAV

Compound Nc1cc(N)c2nc(-c3ccccc3)c(Nc3ccc(F)cc3)nc2c1 has a GI50 [1] of 8.71 µM, a CC50 [1, 28] of 85.1 µM and a TGI [1] of 28.8 µM. The GI50 [2] was 10.2 µM, the CC50 [2] was 49 µM and the TGI [2] was 22.4 µM. The GI50 [3] was 12 µM, the CC50 [3] was 66.1 µM and the TGI [3] was 28.2 µM. It also gave a GI50 [4] of 19.1 µM, a CC50 [4] of over 100 µM and a TGI [4] of 58.9 µM. The GI50 [5] was 15.1 µM, the TGI [5] was 28.8 µM and the GI50 [6] was 24 µM. The CC50 [6] was over 100 µM, the TGI [6] was 57.5 µM and the GI50 [7] was 20.4 µM. It also gave a TGI [7] of 56.2 µM, a GI50 [8] of 11.2 µM and a CC50 [8] of over 100 µM. It also gave a TGI [8] of over 100 µM, a GI50 [9] of 5.01 µM and a CC50 [9, 28] of over 100 µM. The TGI ([9]; read-out: pTGI (converted)) was over 100 µM, the Activity [10] was “inactive” and the GI50 [11] was 21.9 µM. For the same compound, the TGI [11] was 39.8 µM, the GI50 [12] was 19.1 µM and the CC50 [12] was 85.1 µM. It also gave a TGI [12] of 40.7 µM, a GI50 [13] of 11 µM and a TGI [13] of 24.5 µM. It also gave a GI50 [14] of 17.4 µM, a CC50 [14] of 74.1 µM and a TGI [14] of 35.5 µM. For the same compound, the GI50 [15] was 16.6 µM, the TGI [15] was over 100 µM and the GI50 [16] was 16.2 µM. It also gave a TGI [16] of 31.6 µM, a GI50 [17] of 7.41 µM and a CC50 [17] of 50.1 µM. The TGI [17] was 20.9 µM, the GI50 [18] was 16.2 µM and the TGI [18] was 43.7 µM. The Ki [19] was 3 µM, the GI50 [20] was 18.6 µM and the TGI ([20]; read-out: pTGI (converted)) was 35.5 µM. It also gave a GI50 [21] of 20.9 µM, a TGI ([21]; read-out: pTGI (converted)) of 41.7 µM and a GI50 [22] of 17.8 µM. For the same compound, the TGI [22] was 47.9 µM, the GI50 [23] was 13.2 µM and the CC50 [23] was over 100 µM. It also gave a TGI [23] of 40.7 µM, a GI50 [24] of over 100000 nM and a CC50 [24] of over 100 µM. It also gave a TGI [24] of over 100 µM.

CCOC(=O)CCC(NC(=O)c1ccc(Nc2nc3cc(N)cc(N)c3nc2-c2ccccc2)cc1)C(=O)OCC (stereo not drawn) showed a GI50 [25] of 2950 nM, a CC50 [25, 28] of over 100 µM and a TGI ([25]; read-out: pTGI (converted)) of over 100 µM. For the same compound, the GI50 [1] was 24.5 µM, the TGI [1] was 85.1 µM and the GI50 [2] was 12.9 µM. It also gave a CC50 [2] of over 100 µM, a TGI [2] of 46.8 µM and a GI50 [3] of 44.7 µM. For the same compound, the CC50 [3] was over 100 µM, the TGI [3] was over 100 µM and the GI50 [4] was 33.9 µM. For the same compound, the CC50 [4] was over 100 µM, the TGI [4] was 75.9 µM and the GI50 [5] was 2 µM. For the same compound, the LC50 [5] was over 100 µM, the TGI [5] was 4.9 µM and the GI50 [6] was 19.5 µM. The CC50 [6] was over 100 µM, the TGI [6] was 63.1 µM and the GI50 [7] was 8.91 µM. It also gave an LC50 [7] of over 100 µM, a TGI [7] of over 100 µM and a GI50 [8] of 9.55 µM. The CC50 [8] was over 100 µM, the TGI [8] was 51.3 µM and the Activity [10] was “inactive”. The GI50 [11] was 21.4 µM, the LC50 [11] was over 100 µM and the TGI [11] was over 100 µM. It also gave a GI50 [12] of 27.5 µM, a CC50 [12] of over 100 µM and a TGI [12] of over 100 µM. For the same compound, the GI50 [13] was 27.5 µM, the LC50 [13] was over 100 µM and the TGI [13] was over 100 µM. It also gave a GI50 [14] of 33.1 µM, a CC50 [14] of over 100 µM and a TGI [14] of 75.9 µM. It also gave a GI50 [15] of 6.31 µM, an LC50 [15] of over 100 µM and a TGI [15] of 89.1 µM. It also gave a GI50 [16] of 3.55 µM, an LC50 [16] of 64.6 µM and a TGI [16] of 14.5 µM. It also gave a GI50 [17] of 12 µM, a CC50 [17] of over 100 µM and a TGI [17] of 36.3 µM. It also gave a GI50 [18] of 2.51 µM, an LC50 [18] of 75.9 µM and a TGI [18] of 5.89 µM. The Ki [19] was 27 µM, the Ki [26] was 34 µM and the GI50 [27] was 1660 nM. The CC50 [27, 28] was over 100 µM, the TGI ([27]; read-out: pTGI (converted)) was 4.9 µM and the GI50 [22] was 26.9 µM. It also gave an LC50 [22] of over 100 µM, a TGI [22] of 55 µM and a GI50 [23] of 23.4 µM. The CC50 [23] was over 100 µM, the TGI [23] was over 100 µM and the GI50 [24] was 2400 nM. It also gave a CC50 [24] of over 100 µM and a TGI [24] of 7.41 µM.
